PubChem BioAssay (NCI)
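Briefly, cells in 96-well plates were exposed to five compound concentrations for 48 h, and endpoints were estimated by linear interpolation. TGI marks complete inhibition of growth.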

Tests used:
Test in all cases: NCI-60 cell line screen, 48 h
SK-MEL-28 melanoma = test system: SK-MEL-28 melanoma
NCI-H23 lung = test system: NCI-H23 lung
MDA-MB-231 breast = test system: MDA-MB-231 breast
CAKI-1 renal = test system: CAKI-1 renal
SNB-75 CNS = test system: SNB-75 CNS
SW-620 colon = test system: SW-620 colon
LOX IMVI melanoma = test system: LOX IMVI melanoma
IGROV1 ovarian = test system: IGROV1 ovarian
COLO 205 colon = test system: COLO 205 colon
HS 578T breast = test system: HS 578T breast
MDA-MB-435 = test system: MDA-MB-435
NCI-H226 lung = test system: NCI-H226 lung
SNB-19 CNS = test system: SNB-19 CNS
SK-MEL-5 melanoma = test system: SK-MEL-5 melanoma
SK-OV-3 ovarian = test system: SK-OV-3 ovarian
MOLT-4 leukemia = test system: MOLT-4 leukemia
786-0 renal = test system: 786-0 renal
UACC-257 melanoma = test system: UACC-257 melanoma
RXF 393 renal = test system: RXF 393 renal
TK-10 renal = test system: TK-10 renal
MDA-N = test system: MDA-N
A498 renal = test system: A498 renal
CCRF-CEM leukemia = test system: CCRF-CEM leukemia
OVCAR-3 ovarian = test system: OVCAR-3 ovarian
HT29 colon = test system: HT29 colon
A549 NSCLC = test system: A549 NSCLC
OVCAR-4 ovarian = test system: OVCAR-4 ovarian
SN12C renal = test system: SN12C renal
MALME-3M melanoma = test system: MALME-3M melanoma
K-562 leukemia = test system: K-562 leukemia
UO-31 renal = test system: UO-31 renal
T-47D breast = test system: T-47D breast
BT-549 breast = test system: BT-549 breast
PC-3 prostate = test system: PC-3 prostate
MCF7 breast = test system: MCF7 breast
U251 CNS = test system: U251 CNS
HOP-62 NSCLC = test system: HOP-62 NSCLC
KM12 colon = test system: KM12 colon
EKVX NSCLC = test system: EKVX NSCLC
M14 melanoma = test system: M14 melanoma
HCT-15 colon = test system: HCT-15 colon
NCI/ADR-RES ovarian = test system: NCI/ADR-RES ovarian
RPMI-8226 leukemia = test system: RPMI-8226 leukemia
SK-MEL-2 melanoma = test system: SK-MEL-2 melanoma
OVCAR-8 ovarian = test system: OVCAR-8 ovarian
HOP-92 NSCLC = test system: HOP-92 NSCLC
HCT-116 colon = test system: HCT-116 colon
SR leukemia = test system: SR leukemia
NCI-H522 lung = test system: NCI-H522 lung
OVCAR-5 ovarian = test system: OVCAR-5 ovarian
ACHN renal = test system: ACHN renal
DU-145 prostate = test system: DU-145 prostate
UACC-62 melanoma = test system: UACC-62 melanoma
SF-295 CNS = test system: SF-295 CNS
NCI-H460 lung = test system: NCI-H460 lung
SF-268 CNS = test system: SF-268 CNS
HL-60(TB) leukemia = test system: HL-60(TB) leukemia
SF-539 CNS = test system: SF-539 CNS

Structure (SMILES): C=CCNS(=O)(=O)c1ncnc2nc[nH]c12
- TGI (SK-MEL-28 melanoma): > 100 µM
- TGI (NCI-H23 lung): > 100 µM
- TGI (MDA-MB-231 breast): > 100 µM
- TGI (CAKI-1 renal): > 100 µM
- TGI (SNB-75 CNS): > 100 µM
- TGI (SW-620 colon): > 100 µM
- TGI (LOX IMVI melanoma): > 100 µM
- TGI (IGROV1 ovarian): > 100 µM
- TGI (COLO 205 colon): > 100 µM
- TGI (HS 578T breast): > 100 µM
- TGI (MDA-MB-435): > 100 µM
- TGI (NCI-H226 lung): > 100 µM
- TGI (SNB-19 CNS): > 100 µM
- TGI (SK-MEL-5 melanoma): > 100 µM
- TGI (SK-OV-3 ovarian): > 100 µM
- TGI (MOLT-4 leukemia): 41.2 µM
- TGI (786-0 renal): > 100 µM
- TGI (UACC-257 melanoma): > 100 µM
- TGI (RXF 393 renal): > 100 µM
- TGI (TK-10 renal): > 100 µM
- TGI (MDA-N): > 100 µM
- TGI (A498 renal): > 100 µM
- TGI (CCRF-CEM leukemia): > 100 µM
- TGI (OVCAR-3 ovarian): > 100 µM
- TGI (HT29 colon): > 100 µM
- TGI (A549 NSCLC): > 100 µM
- TGI (OVCAR-4 ovarian): > 100 µM
- TGI (SN12C renal): > 100 µM
- TGI (MALME-3M melanoma): > 100 µM
- TGI (K-562 leukemia): > 100 µM
- TGI (UO-31 renal): > 100 µM
- TGI (T-47D breast): > 100 µM
- TGI (BT-549 breast): > 100 µM
- TGI (PC-3 prostate): > 100 µM
- TGI (MCF7 breast): > 100 µM
- TGI (U251 CNS): > 100 µM
- TGI (HOP-62 NSCLC): > 100 µM
- TGI (KM12 colon): > 100 µM
- TGI (EKVX NSCLC): > 100 µM
- TGI (M14 melanoma): > 100 µM
- TGI (HCT-15 colon): > 100 µM
- TGI (NCI/ADR-RES ovarian): > 100 µM
- TGI (RPMI-8226 leukemia): > 100 µM
- TGI (SK-MEL-2 melanoma): > 100 µM
- TGI (OVCAR-8 ovarian): > 100 µM
- TGI (HOP-92 NSCLC): > 100 µM
- TGI (HCT-116 colon): > 100 µM
- TGI (SR leukemia): > 100 µM
- TGI (NCI-H522 lung): > 100 µM
- TGI (OVCAR-5 ovarian): > 100 µM
- TGI (ACHN renal): > 100 µM
- TGI (DU-145 prostate): > 100 µM
- TGI (UACC-62 melanoma): > 100 µM
- TGI (SF-295 CNS): > 100 µM

Structure (SMILES): CSc1ncnc2c1ncn2C1OC(CO)C(O)OC1O (stereo unspecified)
- TGI (SK-MEL-28 melanoma): 69.5 µM
- TGI (NCI-H23 lung): > 44 µM
- TGI (MDA-MB-231 breast): 14.6 µM
- TGI (CAKI-1 renal): > 51.7 µM
- TGI (SNB-75 CNS): 31.8 µM
- TGI (SW-620 colon): > 100 µM
- TGI (LOX IMVI melanoma): 15.4 µM
- TGI (NCI-H460 lung): 16 µM
- TGI (IGROV1 ovarian): 18.9 µM
- TGI (COLO 205 colon): 11.8 µM
- TGI (HS 578T breast): > 100 µM
- TGI (MDA-MB-435): 23.8 µM
- TGI (SNB-19 CNS): 51.5 µM
- TGI (SK-MEL-5 melanoma): 17.6 µM
- TGI (SK-OV-3 ovarian): > 100 µM
- TGI (MOLT-4 leukemia): 30.1 µM
- TGI (786-0 renal): 43.5 µM
- TGI (UACC-257 melanoma): 15.2 µM
- TGI (RXF 393 renal): 38 µM
- TGI (TK-10 renal): 1.19 µM
- TGI (MDA-N): 27.7 µM
- TGI (A498 renal): > 53.1 µM
- TGI (CCRF-CEM leukemia): 0.402 µM
- TGI (OVCAR-3 ovarian): 16.7 µM
- TGI (HT29 colon): > 37.4 µM
- TGI (A549 NSCLC): > 100 µM
- TGI (OVCAR-4 ovarian): 96.3 µM
- TGI (SN12C renal): 41.3 µM
- TGI (MALME-3M melanoma): 70.5 µM
- TGI (K-562 leukemia): 59.8 µM
- TGI (UO-31 renal): 31.2 µM
- TGI (T-47D breast): 17.7 µM
- TGI (BT-549 breast): 48.5 µM
- TGI (PC-3 prostate): 33.9 µM
- TGI (MCF7 breast): > 100 µM
- TGI (U251 CNS): 30.1 µM
- TGI (HOP-62 NSCLC): 35.4 µM
- TGI (KM12 colon): 36.8 µM
- TGI (EKVX NSCLC): > 66.3 µM
- TGI (M14 melanoma): 39.1 µM
- TGI (SF-268 CNS): > 100 µM
- TGI (HL-60(TB) leukemia): 11.7 µM
- TGI (HCT-15 colon): > 100 µM
- TGI (NCI/ADR-RES ovarian): > 93.1 µM
- TGI (RPMI-8226 leukemia): 79.5 µM
- TGI (SK-MEL-2 melanoma): 18.9 µM
- TGI (OVCAR-8 ovarian): 52.4 µM
- TGI (HOP-92 NSCLC): 22.7 µM
- TGI (HCT-116 colon): 21.6 µM
- TGI (SR leukemia): > 100 µM
- TGI (NCI-H522 lung): > 100 µM
- TGI (OVCAR-5 ovarian): > 23.3 µM
- TGI (ACHN renal): > 100 µM
- TGI (DU-145 prostate): 39.4 µM
- TGI (UACC-62 melanoma): 18.5 µM
- TGI (SF-539 CNS): 16.9 µM
- TGI (SF-295 CNS): > 71.3 µM
